The source of these data is ChEMBL document CHEMBL1201862, “PubChem BioAssay data set” (2004).

The source made the active and inactive calls. Unless noted, the calls are words filed in the database; no cut-off is given here. Bounds are passed on as bounds.

Test [1] concerns MDA-MB-435. Kind of test: cells. The settings on record: Homo sapiens. The format is functional, cell-based.
A short description of test [2]: cells. The format is functional, cell-based. The settings on record: PPC-1.
In test [3] the target is Eukaryotic translation initiation factor 4H (Homo sapiens, UniProt Q15056). Kind of test: eIF4H inhibition in translation initiation, SAR follow-up (AID 435011). The format is functional.
Test [4] addresses Polyadenylate-binding protein 1 (Homo sapiens, UniProt P11940). Kind of test: PABP inhibition in translation initiation, SAR follow-up (AID 435018). The format is functional.
Test [5] concerns the target T1, Coagulation factor XII (Homo sapiens, UniProt P00748).
T1 sequence (P00748 whole entry): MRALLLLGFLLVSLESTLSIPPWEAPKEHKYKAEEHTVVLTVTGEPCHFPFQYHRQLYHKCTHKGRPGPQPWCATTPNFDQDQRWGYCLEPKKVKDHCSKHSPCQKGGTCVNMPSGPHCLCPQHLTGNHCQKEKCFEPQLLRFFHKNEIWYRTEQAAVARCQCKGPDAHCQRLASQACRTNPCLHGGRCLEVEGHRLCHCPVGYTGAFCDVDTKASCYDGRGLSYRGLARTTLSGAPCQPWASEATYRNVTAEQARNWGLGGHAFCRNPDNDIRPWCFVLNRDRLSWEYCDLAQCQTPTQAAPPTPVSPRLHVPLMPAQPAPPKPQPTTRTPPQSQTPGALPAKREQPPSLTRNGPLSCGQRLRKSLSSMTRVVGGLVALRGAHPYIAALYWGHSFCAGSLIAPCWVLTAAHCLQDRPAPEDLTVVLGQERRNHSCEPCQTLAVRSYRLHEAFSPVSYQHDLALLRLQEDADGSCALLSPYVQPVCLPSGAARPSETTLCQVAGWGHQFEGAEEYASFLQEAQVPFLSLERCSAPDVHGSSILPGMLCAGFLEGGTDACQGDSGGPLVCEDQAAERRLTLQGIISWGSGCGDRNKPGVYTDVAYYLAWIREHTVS
Kind of test: FXIIa inhibitor potency, concentration-response, biochemical (AID 716). The test is classed as functional.

Test [6] concerns the target Keap1/Nrf2 (Homo sapiens, UniProt Q14145). Kind of test: Keap1-Nrf2 protein-protein interaction inhibitors, dose response, biochemical, fluorescence polarization, cherry-picked samples (AID 588683).
Test [7] concerns the target ORF 73 (Human herpesvirus 8, UniProt O40947). Kind of test: inhibitors of C-LANA binding to LBS DNA, dose response, biochemical, fluorescence polarization, cherry-picked samples (AID 504725).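 Further: fluorescence polarization of a labeled DNA duplex reporting LANA DNA binding; potency is for inhibitors that block LANA binding to the DNA.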 Details: species or system Human gammaherpesvirus 8.
Test [8] has as its system HeLa. Kind of test: HeLa cell cytotoxicity, dose response, cytotoxicity control, 24 h, cherry-picked samples (AID 504726).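 Further: potency for cytotoxicity as loss of luminescence signal.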 The test is classed as functional, cell-based. Conditions: Homo sapiens.
The target in test [9] is Mu-type opioid receptor (Homo sapiens, UniProt P35372). Kind of test: SAR Analysis of Antagonists of the MOR Receptor using an Image-Based Assay - Set 3. [Related pubchem assays (depositor defined):AID1777, AID1785, AID1786, AID1966, AID2133, AID2136, AID2284, AID2285, AID2420]. The test is classed as functional.
In test [10] the target is T2, Kappa-type opioid receptor (Homo sapiens, UniProt P41145). Kind of test: SAR analysis of Antagonists of the Kappa Opioid Receptor (KOR) using an Image-Based Assay - Set 4. [Related pubchem assays (depositor defined):AID1777, AID1785]. The format is functional.
The target of test [11] is Delta-type opioid receptor (Homo sapiens, UniProt P41143). Kind of test: SAR Analysis of Antagonists of the DOR Receptor using an Image-Based Assay - Set 3. [Related pubchem assays (depositor defined):AID1777, AID1785]. The format is functional.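 Further: U2OS cells expressing DOR1 and beta-arrestin GFP stimulated with 100 nM SNC80; imaging of GFP-tagged beta-arrestin moving into spots after receptor activation.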
Test [12] deals with T2, Kappa-type opioid receptor. Kind of test: SAR analysis of small molecule antagonists of the kappa opioid receptor via a luminescent beta-arrestin assay - Set 4. [Related pubchem assays (depositor defined):AID1777, AID1778, AID1785, AID1786, AID1966, AID2133, AID2136, AID2285]. The test is classed as functional.
Test [13] addresses T2, Kappa-type opioid receptor. Kind of test: SAR analysis of small molecule antagonists of the kappa opioid receptor via a luminescent beta-arrestin assay - Set 6. [Related pubchem assays (depositor defined):AID1777, AID1778, AID1785, AID1786, AID1966, AID2133, AID2136, AID2285]. The format is functional.
Test [14] concerns the target DNA dC->dU-editing enzyme APOBEC-3G (Homo sapiens, UniProt Q9HC16). Kind of test: Dose Response confirmation of small molecule APOBEC3G DNA Deaminase Inhibitors via a fluorescence-based single-stranded DNA deaminase assay. [Related pubchem assays (depositor defined):AID493012, AID493028]. The test is classed as functional.
Test [15] has as its target DNA dC->dU-editing enzyme APOBEC-3A (Homo sapiens, UniProt P31941). Kind of test: APOBEC3A DNA deaminase inhibitors, dose response, biochemical (AID 504722). The test is classed as functional.
For test [16], the target named is Importin subunit alpha-1 (Homo sapiens, UniProt P52292). Kind of test: YIC FRET probe signal interference, dose response, counter-screen for RanGTP-importin-beta inhibitor project, biochemical, dry powder samples (AID 493094). The format is functional.

T2 sequence (P41145 whole entry): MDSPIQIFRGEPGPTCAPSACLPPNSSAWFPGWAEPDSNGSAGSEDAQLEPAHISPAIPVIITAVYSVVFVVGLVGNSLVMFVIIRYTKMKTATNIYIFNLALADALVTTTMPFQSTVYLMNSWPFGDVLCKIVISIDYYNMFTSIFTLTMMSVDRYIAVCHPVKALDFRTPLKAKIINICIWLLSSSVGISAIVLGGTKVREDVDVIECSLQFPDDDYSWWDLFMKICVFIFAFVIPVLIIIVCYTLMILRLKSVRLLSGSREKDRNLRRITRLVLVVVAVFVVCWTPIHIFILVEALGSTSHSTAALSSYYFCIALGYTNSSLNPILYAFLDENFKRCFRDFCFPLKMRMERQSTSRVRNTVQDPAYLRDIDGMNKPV
Keap1/Nrf2, sequence (Q16236 whole entry): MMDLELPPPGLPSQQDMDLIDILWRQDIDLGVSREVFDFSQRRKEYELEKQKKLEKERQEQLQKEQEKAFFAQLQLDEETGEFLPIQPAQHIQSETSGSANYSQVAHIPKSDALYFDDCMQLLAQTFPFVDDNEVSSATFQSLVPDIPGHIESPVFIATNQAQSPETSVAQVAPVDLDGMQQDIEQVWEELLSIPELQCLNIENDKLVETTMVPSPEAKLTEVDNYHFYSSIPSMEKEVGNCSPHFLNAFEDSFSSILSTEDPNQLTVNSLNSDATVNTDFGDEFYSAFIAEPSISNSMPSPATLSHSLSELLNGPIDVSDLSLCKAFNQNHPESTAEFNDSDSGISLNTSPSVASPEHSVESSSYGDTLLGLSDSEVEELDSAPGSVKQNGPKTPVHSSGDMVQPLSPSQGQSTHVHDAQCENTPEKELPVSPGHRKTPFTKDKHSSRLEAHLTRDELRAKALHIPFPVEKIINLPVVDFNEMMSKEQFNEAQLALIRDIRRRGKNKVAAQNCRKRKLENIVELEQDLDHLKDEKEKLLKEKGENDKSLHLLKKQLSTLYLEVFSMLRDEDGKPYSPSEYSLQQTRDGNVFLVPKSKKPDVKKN
Keap1/Nrf2, sequence (Q14145 whole entry): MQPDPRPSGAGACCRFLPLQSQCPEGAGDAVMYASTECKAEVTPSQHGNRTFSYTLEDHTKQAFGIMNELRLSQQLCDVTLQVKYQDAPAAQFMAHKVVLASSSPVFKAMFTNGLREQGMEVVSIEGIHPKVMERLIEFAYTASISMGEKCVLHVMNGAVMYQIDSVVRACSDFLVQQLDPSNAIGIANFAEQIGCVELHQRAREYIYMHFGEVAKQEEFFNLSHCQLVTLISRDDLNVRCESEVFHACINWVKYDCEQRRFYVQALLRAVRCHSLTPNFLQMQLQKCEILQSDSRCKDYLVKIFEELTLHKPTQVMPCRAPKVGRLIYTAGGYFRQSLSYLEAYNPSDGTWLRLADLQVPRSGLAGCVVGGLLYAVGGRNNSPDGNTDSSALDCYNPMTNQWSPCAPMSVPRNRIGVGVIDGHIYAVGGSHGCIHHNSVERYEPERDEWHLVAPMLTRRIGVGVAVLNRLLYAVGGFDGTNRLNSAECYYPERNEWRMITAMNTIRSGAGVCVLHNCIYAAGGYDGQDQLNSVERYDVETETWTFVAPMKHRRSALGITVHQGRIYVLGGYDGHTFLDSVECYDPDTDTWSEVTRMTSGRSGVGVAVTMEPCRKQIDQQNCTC
DNA dC->dU-editing enzyme APOBEC-3G, sequence (Q9HC16 whole entry): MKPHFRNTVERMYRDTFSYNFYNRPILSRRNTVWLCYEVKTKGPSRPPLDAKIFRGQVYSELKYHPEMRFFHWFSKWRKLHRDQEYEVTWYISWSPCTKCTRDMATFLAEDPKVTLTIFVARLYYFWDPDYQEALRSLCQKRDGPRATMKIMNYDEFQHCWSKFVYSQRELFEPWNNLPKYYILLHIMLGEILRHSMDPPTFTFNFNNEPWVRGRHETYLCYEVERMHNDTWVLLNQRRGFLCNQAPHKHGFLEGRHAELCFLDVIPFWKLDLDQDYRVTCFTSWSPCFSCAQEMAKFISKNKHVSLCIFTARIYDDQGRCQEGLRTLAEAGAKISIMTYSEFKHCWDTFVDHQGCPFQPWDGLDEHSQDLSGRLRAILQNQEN
Polyadenylate-binding protein 1, sequence (P11940 whole entry): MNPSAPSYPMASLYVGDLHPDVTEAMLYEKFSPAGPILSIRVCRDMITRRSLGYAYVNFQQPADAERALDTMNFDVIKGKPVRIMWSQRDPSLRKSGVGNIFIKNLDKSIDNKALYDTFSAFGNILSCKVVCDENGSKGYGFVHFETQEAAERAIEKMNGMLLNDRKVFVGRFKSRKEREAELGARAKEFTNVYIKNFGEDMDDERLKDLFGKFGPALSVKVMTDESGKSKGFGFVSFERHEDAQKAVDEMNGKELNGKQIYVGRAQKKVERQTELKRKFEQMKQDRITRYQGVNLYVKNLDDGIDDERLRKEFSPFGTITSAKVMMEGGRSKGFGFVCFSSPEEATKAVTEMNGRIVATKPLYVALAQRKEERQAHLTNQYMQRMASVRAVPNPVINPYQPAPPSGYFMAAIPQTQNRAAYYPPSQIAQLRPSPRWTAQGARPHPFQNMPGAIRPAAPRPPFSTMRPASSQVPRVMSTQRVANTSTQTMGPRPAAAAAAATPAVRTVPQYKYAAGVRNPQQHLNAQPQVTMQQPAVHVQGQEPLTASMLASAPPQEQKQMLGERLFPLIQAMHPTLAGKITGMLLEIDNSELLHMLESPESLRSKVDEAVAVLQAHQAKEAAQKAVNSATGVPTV
ORF 73, sequence (O40947 whole entry): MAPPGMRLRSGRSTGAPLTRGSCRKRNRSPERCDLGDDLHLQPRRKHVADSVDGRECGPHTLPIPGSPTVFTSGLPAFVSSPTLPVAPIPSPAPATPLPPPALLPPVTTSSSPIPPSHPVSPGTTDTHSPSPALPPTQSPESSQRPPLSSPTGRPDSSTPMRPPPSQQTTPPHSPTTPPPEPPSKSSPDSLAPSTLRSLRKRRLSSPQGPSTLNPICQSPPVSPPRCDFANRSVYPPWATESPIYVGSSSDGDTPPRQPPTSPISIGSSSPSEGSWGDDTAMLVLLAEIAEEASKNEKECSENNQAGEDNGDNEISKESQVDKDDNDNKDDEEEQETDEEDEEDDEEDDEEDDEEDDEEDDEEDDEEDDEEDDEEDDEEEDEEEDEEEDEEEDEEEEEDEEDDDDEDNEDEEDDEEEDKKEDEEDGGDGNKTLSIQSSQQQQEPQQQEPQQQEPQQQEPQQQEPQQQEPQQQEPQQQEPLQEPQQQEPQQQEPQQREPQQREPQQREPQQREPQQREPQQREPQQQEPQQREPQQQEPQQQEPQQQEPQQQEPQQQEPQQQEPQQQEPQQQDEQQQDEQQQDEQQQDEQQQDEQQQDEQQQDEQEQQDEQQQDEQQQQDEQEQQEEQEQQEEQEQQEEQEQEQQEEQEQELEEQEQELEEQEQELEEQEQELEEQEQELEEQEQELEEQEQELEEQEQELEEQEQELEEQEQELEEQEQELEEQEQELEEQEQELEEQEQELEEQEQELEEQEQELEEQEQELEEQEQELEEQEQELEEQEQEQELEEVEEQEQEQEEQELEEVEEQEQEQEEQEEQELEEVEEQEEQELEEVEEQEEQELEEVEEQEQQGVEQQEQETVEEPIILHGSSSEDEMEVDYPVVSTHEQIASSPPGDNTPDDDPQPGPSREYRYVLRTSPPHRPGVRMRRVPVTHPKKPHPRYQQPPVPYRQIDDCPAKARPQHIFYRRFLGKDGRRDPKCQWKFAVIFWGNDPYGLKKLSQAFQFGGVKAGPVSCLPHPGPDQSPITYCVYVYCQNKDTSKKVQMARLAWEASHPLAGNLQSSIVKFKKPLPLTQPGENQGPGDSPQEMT
Delta-type opioid receptor, sequence (P41143 whole entry): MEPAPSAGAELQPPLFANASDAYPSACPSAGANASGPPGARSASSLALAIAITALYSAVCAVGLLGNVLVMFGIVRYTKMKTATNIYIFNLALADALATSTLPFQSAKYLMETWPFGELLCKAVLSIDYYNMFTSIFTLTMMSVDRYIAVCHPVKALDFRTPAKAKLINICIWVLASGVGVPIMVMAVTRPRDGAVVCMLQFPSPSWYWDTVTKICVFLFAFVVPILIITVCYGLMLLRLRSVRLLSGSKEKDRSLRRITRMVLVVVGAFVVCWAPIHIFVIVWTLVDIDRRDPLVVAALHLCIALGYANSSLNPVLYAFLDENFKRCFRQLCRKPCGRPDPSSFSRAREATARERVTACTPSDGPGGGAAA
Mu-type opioid receptor, sequence (P35372 whole entry): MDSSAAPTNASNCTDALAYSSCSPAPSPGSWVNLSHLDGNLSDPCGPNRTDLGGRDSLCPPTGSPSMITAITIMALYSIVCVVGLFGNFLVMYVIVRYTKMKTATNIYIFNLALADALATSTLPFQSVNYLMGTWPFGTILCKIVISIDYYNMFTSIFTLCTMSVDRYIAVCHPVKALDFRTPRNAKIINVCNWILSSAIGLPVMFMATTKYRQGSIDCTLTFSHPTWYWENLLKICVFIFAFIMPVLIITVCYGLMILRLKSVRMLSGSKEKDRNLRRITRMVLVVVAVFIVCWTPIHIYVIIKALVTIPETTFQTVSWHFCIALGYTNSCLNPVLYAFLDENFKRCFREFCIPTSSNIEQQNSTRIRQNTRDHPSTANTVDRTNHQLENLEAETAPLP
DNA dC->dU-editing enzyme APOBEC-3A, sequence (P31941 whole entry): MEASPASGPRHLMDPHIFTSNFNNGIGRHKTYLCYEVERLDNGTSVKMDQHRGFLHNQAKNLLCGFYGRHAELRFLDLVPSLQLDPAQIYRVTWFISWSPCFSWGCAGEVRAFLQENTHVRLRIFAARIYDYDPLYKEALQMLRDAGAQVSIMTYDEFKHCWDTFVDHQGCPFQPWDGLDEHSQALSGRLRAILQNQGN

On to `CCSc1nc(O)cc(-c2ccccc2)n1`, for which the IC50 in [1] and in [2] was > 10 µM (inactive) in each case.
Consider `COc1cc(/C=N/NC(=O)c2ccccc2O)ccc1OCC(=O)Nc1ccc([N+](=O)[O-])cc1`, for which the IC50 in test [3] and in test [4] was > 100 µM (inactive) throughout.
Turning to `COC(=O)c1ccccc1NC(=O)N1CCN(C(=O)c2ccco2)CC1`, in test [5], the IC50 was > 50 µM (inactive).
Consider `Cc1cccc(N2C(=O)c3cccc4c(N(C)CCO)ccc(c34)C2=O)c1`, for which the concentration at half-maximal activity (AC50) was 22.6 µM (active) in [6], 204 µM (active) in [7] and 324 µM (active) in test [8].
In the case of `Cc1ccc(S(=O)(=O)NCc2ccc(C(=O)NCCN(Cc3ccccc3)C3CCCC3)cc2)cc1`, the concentration for half-maximal inhibition (IC50) is 3.31 µM (active) in [9]; 0.137 µM (active) in test [10]; > 32 µM (inactive) in test [11]; 0.558 µM (active) in test [12]; 0.71 µM (active) in test [13].
As to `Cc1cccc(C)c1OCc1nnc(S)n1N`, the figures for the IC50 in [14] and in test [15] were 5.83 µM (active) and > 100 µM (inactive), respectively.
On to `Cc1cccc(C)c1NC(=O)C1C(=O)c2sccc2N(C)S1(=O)=O` (stereo unspecified), for which, in test [16], the AC50 is 273 µM (active).
